In PubChem BioAssay (NCI):
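Briefly, cells in 96-well plates were exposed to five compound concentrations for 48 h, and endpoints were estimated by linear interpolation. Definition used: TGI = concentration required for complete inhibition of growth.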

Key:
Experiment in all cases: growth of human tumour cells (NCI), 48 h
786-0 renal = tested on: 786-0 renal
A498 renal = tested on: A498 renal
A549 NSCLC = tested on: A549 NSCLC
ACHN renal = tested on: ACHN renal
BT-549 breast = tested on: BT-549 breast
CAKI-1 renal = tested on: CAKI-1 renal
CCRF-CEM leukemia = tested on: CCRF-CEM leukemia
COLO 205 colon = tested on: COLO 205 colon
DU-145 prostate = tested on: DU-145 prostate
EKVX NSCLC = tested on: EKVX NSCLC
HCC-2998 colon = tested on: HCC-2998 colon
HCT-116 colon = tested on: HCT-116 colon
HCT-15 colon = tested on: HCT-15 colon
HL-60(TB) leukemia = tested on: HL-60(TB) leukemia
HOP-62 NSCLC = tested on: HOP-62 NSCLC
HOP-92 NSCLC = tested on: HOP-92 NSCLC
HS 578T breast = tested on: HS 578T breast
HT29 colon = tested on: HT29 colon
IGROV1 ovarian = tested on: IGROV1 ovarian
K-562 leukemia = tested on: K-562 leukemia
KM12 colon = tested on: KM12 colon
LOX IMVI melanoma = tested on: LOX IMVI melanoma
M14 melanoma = tested on: M14 melanoma
MALME-3M melanoma = tested on: MALME-3M melanoma
MCF7 breast = tested on: MCF7 breast
MDA-MB-231 breast = tested on: MDA-MB-231 breast
MDA-MB-435 = tested on: MDA-MB-435
MDA-N = tested on: MDA-N
MOLT-4 leukemia = tested on: MOLT-4 leukemia
NCI-H226 lung = tested on: NCI-H226 lung
NCI-H23 lung = tested on: NCI-H23 lung
NCI-H460 lung = tested on: NCI-H460 lung
NCI-H522 lung = tested on: NCI-H522 lung
NCI/ADR-RES ovarian = tested on: NCI/ADR-RES ovarian
OVCAR-3 ovarian = tested on: OVCAR-3 ovarian
OVCAR-4 ovarian = tested on: OVCAR-4 ovarian
OVCAR-5 ovarian = tested on: OVCAR-5 ovarian
OVCAR-8 ovarian = tested on: OVCAR-8 ovarian
PC-3 prostate = tested on: PC-3 prostate
RPMI-8226 leukemia = tested on: RPMI-8226 leukemia
RXF 393 renal = tested on: RXF 393 renal
SF-268 CNS = tested on: SF-268 CNS
SF-295 CNS = tested on: SF-295 CNS
SF-539 CNS = tested on: SF-539 CNS
SK-MEL-2 melanoma = tested on: SK-MEL-2 melanoma
SK-MEL-28 melanoma = tested on: SK-MEL-28 melanoma
SK-MEL-5 melanoma = tested on: SK-MEL-5 melanoma
SK-OV-3 ovarian = tested on: SK-OV-3 ovarian
SN12C renal = tested on: SN12C renal
SNB-19 CNS = tested on: SNB-19 CNS
SNB-75 CNS = tested on: SNB-75 CNS
SR leukemia = tested on: SR leukemia
SW-620 colon = tested on: SW-620 colon
T-47D breast = tested on: T-47D breast
TK-10 renal = tested on: TK-10 renal
U251 CNS = tested on: U251 CNS
UACC-257 melanoma = tested on: UACC-257 melanoma
UACC-62 melanoma = tested on: UACC-62 melanoma
UO-31 renal = tested on: UO-31 renal

## COc1ccc(N2C(=O)C3c4[nH]c5ccccc5c4C4CCC(c5ccccc5)CC4C3C2=O)cc1 (stereo not drawn)
786-0 renal
  TGI: > 34.9 µM
A498 renal
  TGI: 50.6 µM
A549 NSCLC
  TGI: > 78.1 µM
ACHN renal
  TGI: 47.9 µM
BT-549 breast
  TGI: > 58.3 µM
CAKI-1 renal
  TGI: 36.1 µM
CCRF-CEM leukemia
  TGI: 53 µM
COLO 205 colon
  TGI: > 78.2 µM
DU-145 prostate
  TGI: > 100 µM
EKVX NSCLC
  TGI: 55.6 µM
HCC-2998 colon
  TGI: > 44.9 µM
HCT-116 colon
  TGI: > 100 µM
HCT-15 colon
  TGI: > 100 µM
HL-60(TB) leukemia
  TGI: > 34.8 µM
HOP-62 NSCLC
  TGI: 27.7 µM
HOP-92 NSCLC
  TGI: 61.8 µM
HS 578T breast
  TGI: 21.5 µM
HT29 colon
  TGI: > 100 µM
IGROV1 ovarian
  TGI: 68.8 µM
K-562 leukemia
  TGI: > 41.3 µM
KM12 colon
  TGI: > 100 µM
LOX IMVI melanoma
  TGI: > 54.1 µM
M14 melanoma
  TGI: > 94.4 µM
MALME-3M melanoma
  TGI: 18.3 µM
MCF7 breast
  TGI: > 100 µM
MDA-MB-231 breast
  TGI: 41.5 µM
MDA-MB-435
  TGI: > 100 µM
MDA-N
  TGI: > 81.5 µM
MOLT-4 leukemia
  TGI: > 100 µM
NCI-H226 lung
  TGI: > 96.7 µM
NCI-H23 lung
  TGI: > 51.7 µM
NCI-H460 lung
  TGI: > 43.1 µM
NCI-H522 lung
  TGI: > 44 µM
NCI/ADR-RES ovarian
  TGI: > 59.3 µM
OVCAR-3 ovarian
  TGI: > 100 µM
OVCAR-4 ovarian
  TGI: > 49.5 µM
OVCAR-5 ovarian
  TGI: > 100 µM
OVCAR-8 ovarian
  TGI: 37.2 µM
PC-3 prostate
  TGI: > 78.5 µM
RPMI-8226 leukemia
  TGI: 78.6 µM
RXF 393 renal
  TGI: 25.6 µM
SF-268 CNS
  TGI: 43.8 µM
SF-295 CNS
  TGI: > 51.1 µM
SF-539 CNS
  TGI: 7.4 µM
SK-MEL-2 melanoma
  TGI: 53.2 µM
SK-MEL-28 melanoma
  TGI: > 96.2 µM
SK-MEL-5 melanoma
  TGI: > 87.8 µM
SK-OV-3 ovarian
  TGI: 54.8 µM
SN12C renal
  TGI: > 68.4 µM
SNB-19 CNS
  TGI: 43.2 µM
SNB-75 CNS
  TGI: 19.1 µM
SR leukemia
  TGI: 7.15 µM
SW-620 colon
  TGI: > 100 µM
T-47D breast
  TGI: > 100 µM
TK-10 renal
  TGI: 35.5 µM
U251 CNS
  TGI: 21.1 µM
UACC-257 melanoma
  TGI: 97.5 µM
UACC-62 melanoma
  TGI: 50.3 µM
UO-31 renal
  TGI: > 88.2 µM

## Cc1cccc2c1CC(C1OC(=O)c3ccccc31)C2=O (stereo not drawn)
786-0 renal
  TGI: > 100 µM
A498 renal
  TGI: > 100 µM
A549 NSCLC
  TGI: > 100 µM
ACHN renal
  TGI: > 100 µM
BT-549 breast
  TGI: > 100 µM
CAKI-1 renal
  TGI: > 100 µM
CCRF-CEM leukemia
  TGI: > 100 µM
COLO 205 colon
  TGI: > 100 µM
DU-145 prostate
  TGI: > 100 µM
EKVX NSCLC
  TGI: > 100 µM
HCC-2998 colon
  TGI: > 100 µM
HCT-116 colon
  TGI: > 100 µM
HCT-15 colon
  TGI: > 100 µM
HL-60(TB) leukemia
  TGI: > 100 µM
HOP-62 NSCLC
  TGI: > 100 µM
HOP-92 NSCLC
  TGI: > 100 µM
HS 578T breast
  TGI: > 100 µM
HT29 colon
  TGI: > 100 µM
IGROV1 ovarian
  TGI: > 100 µM
K-562 leukemia
  TGI: > 100 µM
KM12 colon
  TGI: > 100 µM
LOX IMVI melanoma
  TGI: > 100 µM
M14 melanoma
  TGI: > 100 µM
MALME-3M melanoma
  TGI: > 100 µM
MCF7 breast
  TGI: > 100 µM
MDA-MB-231 breast
  TGI: > 100 µM
MDA-MB-435
  TGI: > 100 µM
MDA-N
  TGI: > 100 µM
MOLT-4 leukemia
  TGI: > 100 µM
NCI-H226 lung
  TGI: > 100 µM
NCI-H23 lung
  TGI: > 100 µM
NCI-H460 lung
  TGI: > 100 µM
NCI-H522 lung
  TGI: > 100 µM
NCI/ADR-RES ovarian
  TGI: > 100 µM
OVCAR-3 ovarian
  TGI: > 100 µM
OVCAR-4 ovarian
  TGI: > 100 µM
OVCAR-5 ovarian
  TGI: > 100 µM
OVCAR-8 ovarian
  TGI: > 100 µM
PC-3 prostate
  TGI: > 100 µM
RPMI-8226 leukemia
  TGI: > 100 µM
RXF 393 renal
  TGI: > 100 µM
SF-268 CNS
  TGI: > 100 µM
SF-295 CNS
  TGI: > 100 µM
SF-539 CNS
  TGI: > 100 µM
SK-MEL-2 melanoma
  TGI: > 100 µM
SK-MEL-28 melanoma
  TGI: > 100 µM
SK-MEL-5 melanoma
  TGI: > 100 µM
SK-OV-3 ovarian
  TGI: > 100 µM
SN12C renal
  TGI: > 100 µM
SNB-19 CNS
  TGI: > 100 µM
SNB-75 CNS
  TGI: > 100 µM
SR leukemia
  TGI: > 100 µM
SW-620 colon
  TGI: > 100 µM
T-47D breast
  TGI: > 100 µM
TK-10 renal
  TGI: > 100 µM
U251 CNS
  TGI: > 100 µM
UACC-257 melanoma
  TGI: > 100 µM
UACC-62 melanoma
  TGI: > 100 µM
UO-31 renal
  TGI: > 100 µM
